Measured values: patent US20190315806A1, “POLYMYXIN DERIVATIVE, PREPARATION METHOD AND APPLICATION THEREOF” (priority 2016, published 2019)
Values after ≈ are worked out from the molar mass of the structure shown. Read-outs that look alike come from different tables or passages of the source. Where a SMILES comes first, the peptide text is derived from it. Bridges are numbered along the chain shown (N, C = ends). [ ]: non-standard residue; d: D form. The star is where a group is joined. dPhe(4-tBu) = CC(C)(C)c1ccc(C[C@@H](N)C(=O)O)cc1; dPhe(4-CF3) = N[C@H](Cc1ccc(C(F)(F)F)cc1)C(=O)O; Benzoyl(4-OPh) = O=C(c1ccc(Oc2ccccc2)cc1)*; dPhe(4-Me) = Cc1ccc(C[C@@H](N)C(=O)O)cc1; X7 = Cc1ccc(Oc2ccc(C(=O)*)cc2)cc1; X2 = CC[C@H](C)CCCCC(=O)*; Octanoyl = CCCCCCCC(=O)*; X5 = CCCCCCCC(=O)CC(=O)*; Dab = NCC[C@H](N)C(=O)O

Key:
Type in all cases: cell-based
[1] = system: Escherichia coli ATCC 25922
Method: (§1) The minimum inhibitory concentration (MIC) was determined by means of dish double dilution method using a Multipoint inoculator according to the CLSI recommended method. The compounds of the present invention (for example, the compounds prepared in the Embodiments) and the reference substances were diluted twice each time with the broth into various desired concentrations, and appropriate amounts were added to the dishes. Agar medium is melted, and then quantitatively injected into the dish containing the drug solution, and mixed. The final concentrations of the compounds of the invention (e.g., the compounds prepared in the Embodiments) and the controls were 0.03, 0.06, 0.125, 0.25 . . . 128 μg/mL, respectively. The test bacteria were cultured overnight with nutrient broth, brain heart infusion or HTM broth. During the tests, the bacterial solutions were diluted appropriately, and the test bacteria (inoculation amount 10^4 CFU/dot) were inoculated on the surface of the drug-containing agar by a multi-point inoculator. After drying, the bacterial was incubated for 18 to 24 hours at 35° C., the results were observed, the minimum concentrations of the compounds of the present invention (for example, the compounds prepared in the Embodiments) and the controls contained in the dishes with no growth of colonies were MICs.
(§2) The strains used in the antibacterial activity experiments were from the American Type Culture Collection (ATCC) and clinical isolates.
(§3) The strains used for the experiments on antibacterial activity included Escherichia coli ATCC 25922, Klebsiella pneumoniae ATCC BAA-2146 (NDM-1), Pseudomonas aeruginosa ATCC 27853, Acinetobacter baumannii ATCC 19606 and Staphylococcus epidermidis ATCC 12228.
(§4) Tested samples: polymyxin derivatives prepared according to the technical scheme of the present invention;
(§5) Controls: polymyxin B sulfate and colistin (polymyxin E sulfate).

[2] = system: Acinetobacter baumannii ATCC 19606
Method: as §1, §2, §3, §4, §5

[3] = system: Staphylococcus epidermidis ATCC 12228
Method: as §1, §2, §3, §4, §5

[4] = system: Pseudomonas aeruginosa ATCC 27853
Method: as §1, §2, §3, §4, §5

[5] = system: Klebsiella pneumoniae ATCC BAA-2146 (NDM-1); assay: Antibacterial activity, MIC by dish double dilution method
Method: as §1, §2, §3, §4, §5

[6] = agar dilution, 10^4 CFU/dot, 18 to 24 hours at 35° C.

Row | SMILES | MIC E. coli ATCC 25922 ([1]; ATCC 25922) | MIC A. baumannii ATCC 19606 ([2]; ATCC 19606) | MIC S. epidermidis ATCC 12228 ([3]; ATCC 12228) | MIC P. aeruginosa ATCC 27853 ([4]; ATCC 27853) | MIC K. pneumoniae ATCC BAA-2146 (NDM-1) ([5]; ATCC BAA-2146) | MIC E. coli ATCC 25922 [1, 6] | MIC A. baumannii ATCC 19606 [2, 6] | MIC S. epidermidis ATCC 12228 [3, 6] | MIC P. aeruginosa ATCC 27853 [4, 6] | MIC K. pneumoniae ATCC BAA-2146 (NDM-1) [5, 6]
1 | CC[C@H](C)CCCCC(=O)N[C@@H](CCN)C(=O)N[C@H](C(=O)N[C@@H](CCN)C(=O)N[C@H]1CCNC(=O)[C@H]([C@@H](C)O)NC(=O)[C@H](CCN)NC(=O)[C@H](CCN)NC(=O)[C@H](CC(C)C)NC(=O)[C@@H](Cc2ccc(C(F)(F)F)cc2)NC(=O)[C@H](CCN)NC1=O)[C@@H](C)O [Compound 23, (S)-6-methyloctanoyl-Dab-Thr-Dab-ring(4-10)[Dab-Dab-D-Phe(4-CF3)-Lue-Dab-Dab-Thr]] (X2-[Dab]T[Dab][Dab][Dab][dPhe(4-CF3)]L[Dab][Dab]T; lactam 4-C) | 1 µg/mL (≈ 0.786 µM) | 1 µg/mL (≈ 0.786 µM) | 8 µg/mL (≈ 6.29 µM) | 2 µg/mL (≈ 1.57 µM) | 2 µg/mL (≈ 1.57 µM) |  |  |  |  | 
2 | CC[C@H](C)CCCCC(=O)N[C@@H](CCN)C(=O)N[C@H](C(=O)N[C@@H](CCN)C(=O)N[C@H]1CCNC(=O)[C@H]([C@@H](C)O)NC(=O)[C@H](CCN)NC(=O)[C@H](CCN)NC(=O)[C@H](CC(C)C)NC(=O)[C@@H](CC(C)C)NC(=O)[C@H](CCN)NC1=O)[C@@H](C)O [Compound 70, (S)-6-methyloctanoyl-Dab-Thr-Dab-ring(4-10)[Dab-Dab-D-Leu-Leu-Dab-Dab-Thr]] (X2-[Dab]T[Dab][Dab][Dab][dL]L[Dab][Dab]T; lactam 4-C) |  |  |  |  |  | 1 µg/mL (≈ 0.855 µM) | 1 µg/mL (≈ 0.855 µM) | 64 µg/mL (≈ 54.7 µM) | 2 µg/mL (≈ 1.71 µM) | 1 µg/mL (≈ 0.855 µM)
3 | Cc1ccc(Oc2ccc(C(=O)N[C@@H](CCN)C(=O)N[C@H](C(=O)N[C@@H](CCN)C(=O)N[C@H]3CCNC(=O)[C@H]([C@@H](C)O)NC(=O)[C@H](CCN)NC(=O)[C@H](CCN)NC(=O)[C@H](CC(C)C)NC(=O)[C@@H](Cc4ccccc4)NC(=O)[C@H](CCN)NC3=O)[C@@H](C)O)cc2)cc1 [Compound 9, 4-(p-methylphenoxy)benzoyl-Dab-Thr-Dab-ring(4-10)[Dab-Dab-D-Phe-Lue-Dab-Dab-Thr]] (X7-[Dab]T[Dab][Dab][Dab][dF]L[Dab][Dab]T; lactam 4-C) | 4 µg/mL (≈ 3.14 µM) | 4 µg/mL (≈ 3.14 µM) | 8 µg/mL (≈ 6.28 µM) | 4 µg/mL (≈ 3.14 µM) | 4 µg/mL (≈ 3.14 µM) |  |  |  |  | 
4 | CC[C@H](C)CCCCC(=O)N[C@@H](CCN)C(=O)N[C@H](C(=O)N[C@@H](CCN)C(=O)N[C@H]1CCNC(=O)[C@H]([C@@H](C)O)NC(=O)[C@H](CCN)NC(=O)[C@H](CCN)NC(=O)[C@H](CC(C)C)NC(=O)[C@@H](Cc2ccc(C)cc2)NC(=O)[C@H](CCN)NC1=O)[C@@H](C)O [Compound 26, (S)-6-methyloctanoyl-Dab-Thr-Dab-ring(4-10)[Dab-Dab-D-Phe(4-CH3)-Lue-Dab-Dab-Thr]] (X2-[Dab]T[Dab][Dab][Dab][dPhe(4-Me)]L[Dab][Dab]T; lactam 4-C) | 1 µg/mL (≈ 0.821 µM) | 0.5 µg/mL (≈ 0.411 µM) | 8 µg/mL (≈ 6.57 µM) | 2 µg/mL (≈ 1.64 µM) | 2 µg/mL (≈ 1.64 µM) |  |  |  |  | 
5 | CC[C@H](C)CCCCC(=O)N[C@@H](CCN)C(=O)N[C@H](C(=O)N[C@@H](CCN)C(=O)N[C@H]1CCNC(=O)[C@H]([C@@H](C)O)NC(=O)[C@H](CCN)NC(=O)[C@H](CCN)NC(=O)[C@H](CC(C)C)NC(=O)[C@@H](Cc2ccc(C(C)(C)C)cc2)NC(=O)[C@H](CCN)NC1=O)[C@@H](C)O [Compound 27, (S)-6-methyloctanoyl-Dab-Thr-Dab-ring(4-10)[Dab-Dab-D-Phe(4-tBu)-Lue-Dab-Dab-Thr]] (X2-[Dab]T[Dab][Dab][Dab][dPhe(4-tBu)]L[Dab][Dab]T; lactam 4-C) | 2 µg/mL (≈ 1.59 µM) | 8 µg/mL (≈ 6.35 µM) | 8 µg/mL (≈ 6.35 µM) | 4 µg/mL (≈ 3.18 µM) | 4 µg/mL (≈ 3.18 µM) |  |  |  |  | 
6 | CC(C)C[C@@H]1NC(=O)[C@@H](Cc2ccccc2)NC(=O)[C@H](CCN)NC(=O)[C@@H](NC(=O)[C@H](CCN)NC(=O)[C@@H](NC(=O)[C@H](CCN)NC(=O)c2ccc(Oc3ccccc3)cc2)[C@@H](C)O)CCNC(=O)[C@H]([C@@H](C)O)NC(=O)[C@H](CCN)NC(=O)[C@H](CCN)NC1=O [Compound 8, 4-(phenoxy)benzoyl-Dab-Thr-Dab-ring(4-10)[Dab-Dab-D-Phe-Lue-Dab-Dab-Thr]] ({Benzoyl(4-OPh)}-[Dab]T[Dab][Dab][Dab][dF]L[Dab][Dab]T; lactam 4-C) | 4 µg/mL (≈ 3.18 µM) | 2 µg/mL (≈ 1.59 µM) | 16 µg/mL (≈ 12.7 µM) | 8 µg/mL (≈ 6.35 µM) | 4 µg/mL (≈ 3.18 µM) |  |  |  |  | 

Continued, in another order:

Row | MIC E. coli ATCC 25922 ([1]; ATCC 25922) | MIC A. baumannii ATCC 19606 ([2]; ATCC 19606) | MIC S. epidermidis ATCC 12228 ([3]; ATCC 12228) | MIC P. aeruginosa ATCC 27853 ([4]; ATCC 27853) | MIC K. pneumoniae ATCC BAA-2146 (NDM-1) ([5]; ATCC BAA-2146) | SMILES | MIC E. coli ATCC 25922 [1, 6] | MIC A. baumannii ATCC 19606 [2, 6] | MIC S. epidermidis ATCC 12228 [3, 6] | MIC P. aeruginosa ATCC 27853 [4, 6] | MIC K. pneumoniae ATCC BAA-2146 (NDM-1) [5, 6]
7 | 0.5 µg/mL (≈ 0.433 µM) | 0.5 µg/mL (≈ 0.433 µM) | >128 µg/mL | 1 µg/mL (≈ 0.865 µM) | 1 µg/mL (≈ 0.865 µM) | CCCCCCCC(=O)N[C@@H](CCN)C(=O)N[C@H](C(=O)N[C@@H](CCN)C(=O)N[C@H]1CCNC(=O)[C@H]([C@@H](C)O)NC(=O)[C@H](CCN)NC(=O)[C@H](CCN)NC(=O)[C@H]([C@@H](C)CC)NC(=O)[C@@H](CC(C)C)NC(=O)[C@H](CCN)NC1=O)[C@@H](C)O [Compound 79, octanoyl-Dab-Thr-Dab-ring(4-10)[Dab-Dab-D-Leu-Ile-Dab-Dab-Thr]] (Octanoyl-[Dab]T[Dab][Dab][Dab][dL]I[Dab][Dab]T; lactam 4-C) |  |  |  |  | 
8 | 1 µg/mL (≈ 0.885 µM) | 16 µg/mL (≈ 14.2 µM) | >128 µg/mL | 1 µg/mL (≈ 0.885 µM) | 2 µg/mL (≈ 1.77 µM) | CCCCCCCC(=O)N[C@@H](CCN)C(=O)N[C@H](C(=O)N[C@@H](CCN)C(=O)N[C@H]1CCNC(=O)[C@H](CO)NC(=O)[C@H](CCN)NC(=O)[C@H](CCN)NC(=O)[C@H]([C@@H](C)O)NC(=O)[C@@H](CC(C)C)NC(=O)[C@H](CCN)NC1=O)[C@@H](C)O [Compound 109, octanoyl-Dab-Thr-Dab-ring(4-10)[Dab-Dab-D-Leu-Thr-Dab-Dab-Ser]] (Octanoyl-[Dab]T[Dab][Dab][Dab][dL]T[Dab][Dab]S; lactam 4-C) |  |  |  |  | 
9 | 0.5 µg/mL (≈ 0.433 µM) | 0.5 µg/mL (≈ 0.433 µM) | 32 µg/mL (≈ 27.7 µM) | 1 µg/mL (≈ 0.865 µM) | 0.5 µg/mL (≈ 0.433 µM) | CCCCCCCC(=O)N[C@@H](CCN)C(=O)N[C@H](C(=O)N[C@@H](CCN)C(=O)N[C@H]1CCNC(=O)[C@H]([C@@H](C)O)NC(=O)[C@H](CCN)NC(=O)[C@H](CCN)NC(=O)[C@H](CC(C)C)NC(=O)[C@@H](CC(C)C)NC(=O)[C@H](CCN)NC1=O)[C@@H](C)O [Compound 78, octanoyl-Dab-Thr-Dab-ring(4-10)[Dab-Dab-D-Leu-Leu-Dab-Dab-Thr]] (Octanoyl-[Dab]T[Dab][Dab][Dab][dL]L[Dab][Dab]T; lactam 4-C) |  |  |  |  | 
10 | 2 µg/mL (≈ 1.62 µM) | 2 µg/mL (≈ 1.62 µM) | 32 µg/mL (≈ 26 µM) | 4 µg/mL (≈ 3.25 µM) | 2 µg/mL (≈ 1.62 µM) | CCCCCCCC(=O)CC(=O)N[C@@H](CCN)C(=O)N[C@H](C(=O)N[C@@H](CCN)C(=O)N[C@H]1CCNC(=O)[C@H]([C@@H](C)O)NC(=O)[C@H](CCN)NC(=O)[C@H](CCN)NC(=O)[C@H](CC(C)C)NC(=O)[C@@H](Cc2ccccc2)NC(=O)[C@H](CCN)NC1=O)[C@@H](C)O [Compound 7, 3-oxodecanoyl-Dab-Thr-Dab-ring(4-10)[Dab-Dab-D-Phe-Lue-Dab-Dab-Thr]] (X5-[Dab]T[Dab][Dab][Dab][dF]L[Dab][Dab]T; lactam 4-C) |  |  |  |  | 
